Like-named read-outs stand apart in the source and are kept apart here.
Columns and labels:
[1] = tested on: A549; experiment: Neutral red uptake antiproliferative assay, A549; conditions: for IC50: read-out: IC50 A549
Excerpt: (§1) To assess the impact of conjugating half-sandwich complexes with amines 1 via an imine-pyridine ligand on biological activity, we examined the antiproliferative potential of (R)- and (S)-1 and organometallic conjugates 3a–d and 4a–d in selected human cancer cell lines: alveolar basal epithelial cell adenocarcinoma (A549), colorectal adenocarcinomas (Colo205 and SW620), colorectal carcinoma (HCT116), hepatocellular carcinoma (HepG2), and breast adenocarcinoma (MCF7). The choice of cell lines was dictated by results of previously published clinical trials on ispinesib.[49],[50]
(§2) Cell lines used in this study were purchased from the American Type Culture Collection via LGC Standards. Human normal lung fibroblasts (MRC-5), alveolar basal epithelial cell adenocarcinoma (A549), colorectal adenocarcinoma (Colo205), hepatocellular carcinoma (HepG2), breast adenocarcinoma (MCF7), and colorectal adenocarcinoma (SW620) and its MDR variants[55] were cultured in standard conditions (37 °C, 5% CO2, 100% relative humidity) in high glucose DMEM medium supplemented with GlutaMax, HEPES (ThermoFisher Scientific) and 10% fetal bovine serum (EURx, Poland). All cell lines were tested for Mycoplasma contamination using a MycoProbe mycoplasma detection kit (R&D System).
(§3) For this purpose, neutral red uptake assay was performed. 10^4 of cells were seeded per well of a 96-well plate and left overnight to allow cells to attach to the surface. Then, the cells were exposed to a desired concentration of tested compounds. Stock solutions were prepared in DMSO and were used immediately after preparation. The final concentration of DMSO was constant and nontoxic (0.1% v/v). After 70 h of culture, neutral red was added to the final concentration of 1 mM. After 2 h of incubation with the dye, the medium was aspirated and cells were washed with ice-cold PBS. The dye was released using 100 μL of the solubilizer (1% acetic acid in 50% ethanol) on an orbital shaker (10 min). The absorbance at 540 nm was measured using an EnVision multilabel plate reader (PerkinElmer). […] The IC90 and IC50 parameters were calculated using GraphPad Prism v9 software using the five-parameter nonlinear logistic regression model.

[2] = tested on: HCT116; experiment: cells; conditions: for IC50: read-out: IC50 HCT116
Excerpt: as §1, §3

[3] = tested on: Colo205; experiment: cells; conditions: for IC50: read-out: IC50 Colo205
Excerpt: as §1, §2, §3

[4] = tested on: HepG2; experiment: cells; conditions: for IC50: read-out: IC50 HepG2
Excerpt: as §1, §2, §3

[5] = tested on: MCF7; experiment: cells; conditions: for IC50: read-out: IC50 MCF7
Excerpt: as §1, §2, §3

[6] = tested on: SW620; experiment: Neutral red uptake antiproliferative assay, SW620; type: cell-based, human; conditions: for IC50: exposure time 72 h, n = 3, 95% CI given
Excerpt: as §1, §2, §3

[7] = tested on: SW620C; experiment: Neutral red uptake antiproliferative assay, MDR line SW620C; type: cell-based, human; conditions: for IC50: exposure time 72 h, n = 3, ABCG2-overexpressing MDR line
Excerpt: (§4) Next, we evaluated the cytotoxicity of the synthesized complexes toward the panel of six multidrug-resistant (MDR) cell lines derived from SW620 and characterized by the overexpression of various ABC proteins, namely, ABCG2 (SW620C and SW620Mito), ABCC1 (SW620M and SW620E), and ABCB1 (SW620D, SW620E, and SW620V) (Table 3, Figures S29 and S32). […] The activity of the complexes derived from the ligand (S)-2 is also considerably higher than that of the compounds containing the ligand (R)-2. The cytotoxicity of both rhodium 4c and iridium 4d complexes is higher than that of amine (S)-1. In the case of 4c, the increase in cytotoxicity is low, with the highest value of 3.7-fold for the SW620Mito line. […] Compound 4d also exerts a 2.1- and 2.6-fold higher cytotoxicity than […] against the SW620C and SW620D lines.
(§5) For this purpose, neutral red uptake assay was performed. […] The results were presented as a percentage of control.

[8] = tested on: SW620D; experiment: Neutral red uptake antiproliferative assay, MDR line SW620D; type: cell-based, human; conditions: for IC50: exposure time 72 h, n = 3, ABCB1-overexpressing MDR line
Excerpt: as §4, §5

[9] = tested on: SW620E; experiment: Neutral red uptake antiproliferative assay, MDR line SW620E; type: cell-based, human; conditions: for IC50: exposure time 72 h, n = 3, ABCC1- and ABCB1-overexpressing MDR line
Excerpt: as §4, §5

[10] = tested on: SW620M; experiment: Neutral red uptake antiproliferative assay, MDR line SW620M; type: cell-based, human; conditions: for IC50: exposure time 72 h, n = 3, ABCC1-overexpressing MDR line
Excerpt: as §4, §5

[11] = tested on: SW620V; experiment: Neutral red uptake antiproliferative assay, MDR line SW620V; type: cell-based, human; conditions: for IC50: exposure time 72 h, n = 3, ABCB1-overexpressing MDR line
Excerpt: as §4, §5

[12] = tested on: SW620Mito; experiment: Neutral red uptake antiproliferative assay, MDR line SW620Mito; type: cell-based, human; conditions: for IC50: exposure time 72 h, n = 3, ABCG2-overexpressing MDR line
Excerpt: as §4, §5

[13] = tested on: SW620 cells; experiment: Cell cycle distribution by flow cytometry, SW620; type: cell-based, human; conditions: concentration equal to IC75 of (S)-1 / (R)-1, mean ± SEM, n = 3; for Cell cycle fraction G1, 24 h / Cell cycle fraction G2/M, 24 h / Cell cycle fraction S, 24 h: SW620, 24 h; for Cell cycle fraction G1, 48 h / Cell cycle fraction G2/M, 48 h / Cell cycle fraction S, 48 h: SW620, 48 h
Experimental: Ispinesib leads to the formation of monopolar mitotic spindles and a blockade of chromosome segregation in cancer cells. Using flow cytometry, we assessed the cell cycle distribution in the SW620 and SW620E cells exposed to the studied compounds for 24 and 48 h. […] Both complexes, 3c and 3d, decrease the percentage of cells in the G1/G0 phase and increase the percentage in the S and G2/M phases. […] Furthermore, prolonged exposure to the compounds increases the percentage of cells in the G2/M phase, with the most intensive effect observed for 3c and 3d.
SW620 and SW620E cells lines (vulnerable and resistant variants, respectively) were seeded in 6-well plates at a density of 10^5 cells per well. […] After 24 h, the cells were trypsinized and fixed with ice-cold 70% v/v ethanol. The cells were stained with 75 μM propidium iodide with 50 Kunitz units of RNase A in PBS for 30 min at 37 °C. All samples were analyzed using a LSRII flow cytometer (Becton Dickinson) at a PE channel ([…]). Cell cycle phase distribution was determined using a built-in cell cycle module (Watson pragmatic algorithm) by FlowJo 7.6.1 software.

[14] = biological target: T1, KSP (Homo sapiens, UniProt P52732); experiment: Kinesin ATPase inhibition (ATP hydrolysis) end-point assay; type: biochemical; conditions: 100 nM stated for ispinesib and (R)-1; concentration not restated for the complexes
T1 construct: purchased Cytoskeleton, Inc
T1 sequence (P52732 1-368 limits assumed): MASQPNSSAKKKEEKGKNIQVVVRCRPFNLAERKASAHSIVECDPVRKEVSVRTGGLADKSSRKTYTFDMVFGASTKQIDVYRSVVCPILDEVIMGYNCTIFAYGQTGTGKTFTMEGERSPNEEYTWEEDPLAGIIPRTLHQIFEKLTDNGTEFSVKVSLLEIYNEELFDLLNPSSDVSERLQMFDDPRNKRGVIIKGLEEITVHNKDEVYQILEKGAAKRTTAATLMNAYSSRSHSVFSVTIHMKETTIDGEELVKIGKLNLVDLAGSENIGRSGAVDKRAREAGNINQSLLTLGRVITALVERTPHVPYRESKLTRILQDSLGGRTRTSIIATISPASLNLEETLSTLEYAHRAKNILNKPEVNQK
Experimental: The mechanism of the anticancer activity of ispinesib is related to the inhibition of the activity of the KSP. Thus, we studied the synthesized compounds’ ability to inhibit KSP activity using the adenosine 5′-triphosphate (ATP) hydrolysis assay.
The potential kinesin modulatory activity of tested compounds was performed using a Kinesin ATPase end-point biochem kit (Cytoskeleton, Inc.). […] The experiment was performed according to the manufacturer’s instructions. One μg of tested kinesin (KSP) was used per reaction. Phosphate release was measured at the absorbance 650 nm using an EnVision multilabel plate reader (PerkinElmer).

[15] = tested on: human cancer cell lines (A549, Colo205, HCT116, HepG2, MCF7, SW620); experiment: Neutral red uptake antiproliferative assay, panel of human cancer cell lines; type: cell-based; conditions: cell line not stated
Excerpt: as §1
as §3, with “The dye was released using 100 μL of the solubilizer (1% acetic acid in 50% ethanol) on an orbital shaker (10 min).” left out

[16] = exposure time 72 h, n = 3, 95% CI given
[17] = vs corresponding amine (R)-1 or (S)-1, 72 h
[18] = compared with the amine of opposite configuration, (R)-1

CC(C)[C@@H](N)c1nc2cc(Cl)ccc2c(=O)n1Cc1ccccc1 [(R)-1, reference compound]
IC50 ([1]; Homo sapiens, A549, 72 h): 2210 nM
IC50 ([2]; Homo sapiens, HCT-116, 72 h): 346 nM
IC50 ([3]; Homo sapiens, COLO 205, 72 h): 107 nM
IC50 ([4]; Homo sapiens, HepG2, 72 h): 566 nM
IC50 ([5]; Homo sapiens, MCF7, 72 h): 231 nM
IC50 ([6]; Homo sapiens, SW-620): 96 nM
IC50 ([7]; Homo sapiens): 721 nM
IC50 ([8]; Homo sapiens): 1120 nM
IC50 ([9]; Homo sapiens): 835 nM
IC50 ([10]; Homo sapiens): 241 nM
IC50 ([11]; Homo sapiens): 206 nM
IC50 ([12]; Homo sapiens): 261 nM
Cell cycle fraction G1, 24 h [13]: 45.4 ± 1.0%
Cell cycle fraction G2/M, 24 h [13]: 36.6 ± 2.2%
Cell cycle fraction S, 24 h [13]: 17.2 ± 1.3%
Cell cycle fraction G1, 48 h [13]: 36.2 ± 1.4%
Cell cycle fraction G2/M, 48 h [13]: 42.1 ± 0.4%
Cell cycle fraction S, 48 h [13]: 19.0 ± 0.6%
KSP residual activity [14]: about 35%

CC(C)[C@H](N=Cc1ccccn1)c1nc2cc(Cl)ccc2c(=O)n1Cc1ccccc1.Cc1c(C)c(C)[c-](C)c1C.F[P-](F)(F)(F)(F)F.[Cl-].[Ir+3] [Compound 4d, [(Cp*)Ir((S)-2)Cl]PF6]
IC50 [1, 16]: 764 nM
activity factor IC50(1)/IC50(3a–4d), A549 [1, 17]: (9.23)
IC50 [2, 16]: 222 nM
activity factor IC50(1)/IC50(3a–4d), HCT116 [2, 17]: (36.31)
IC50 [3, 16]: 216 nM
activity factor IC50(1)/IC50(3a–4d), Colo205 [3, 17]: (28.1)
IC50 [4, 16]: 218 nM
activity factor IC50(1)/IC50(3a–4d), HepG2 [4, 17]: (11.01)
IC50 [5, 16]: 216 nM
activity factor IC50(1)/IC50(3a–4d), MCF7 [5, 17]: (18.10)
IC50 [6]: 139 nM
activity factor IC50(1)/IC50(3a–4d), SW620 [6, 17]: (20.65)
higher cytotoxicity than (R)-1, SW620C [7, 18]: 2.1 fold
IC50 [7]: 343 nM
activity factor IC50(1)/IC50(3a–4d), SW620C [7, 17]: (9.71)
higher cytotoxicity than (R)-1, SW620D [8, 18]: 2.6 fold
IC50 [8]: 425 nM
activity factor IC50(1)/IC50(3a–4d), SW620D [8, 17]: (9.76)
IC50 [9]: 663 nM
activity factor IC50(1)/IC50(3a–4d), SW620E [9, 17]: (6.11)
IC50 [10]: 387 nM
activity factor IC50(1)/IC50(3a–4d), SW620M [10, 17]: (8.94)
IC50 [11]: 411 nM
activity factor IC50(1)/IC50(3a–4d), SW620V [11, 17]: (8.37)
IC50 [12]: 365 nM
activity factor IC50(1)/IC50(3a–4d), SW620Mito [12, 17]: (10.71)
Cell cycle fraction G1, 24 h [13]: 51.7 ± 1.2%
Cell cycle fraction G2/M, 24 h [13]: 28.9 ± 0.4%
Cell cycle fraction S, 24 h [13]: 14.3 ± 0.2%
Cell cycle fraction G1, 48 h [13]: 44.1 ± 0.5%
Cell cycle fraction G2/M, 48 h [13]: 40.6 ± 1.3%
Cell cycle fraction S, 48 h [13]: 13.7 ± 0.4%
higher cytotoxicity compared to (R)-1 [15]: 1.6 fold
higher cytotoxicity compared to (S)-1 [15]: 2.6 fold

Cc1ccc(C(=O)N(CCCN)[C@@H](c2nc3cc(Cl)ccc3c(=O)n2Cc2ccccc2)C(C)C)cc1 [ispinesib, reference compound]
KSP residual activity [14]: 2.2%
